We go through 38 molecules from US20240279236A1, “COMPOUNDS AND METHODS OF TREATING TUBERCULOSIS” (Fimbrion Therapeutics, Inc., priority 2021, published 2024).

This assay has as its system WT Mtb Erdman strain. The assay can be described thus: Microplate Alamar Blue Assay (MABA), Mtb growth inhibition. The assay is classed as cell-based, Mycobacterium tuberculosis. The settings on record: Mycobacterium tuberculosis, ERDMAN, 168 h, Middlebrook 7H9 media, 7 days at 37° C. in 5% CO2.
As a reminder, the IC50 is the point on the concentration scale where inhibition reaches its midpoint. `Cc1cc2c(NCCCc3ccc(N)cc3)nc(C(F)(F)F)nc2s1` [Example 235, N-(3-(4-aminophenyl)propyl)-6-methyl-2-(trifluoromethyl) thieno[2,3-d]pyrimidin-4-amine]: the IC50 is above 9900 nM.

`CCCc1ccc(CCCNc2nc(C(F)(F)F)nc3sc(C)cc23)cc1` [Example 236, 6-methyl-N-(3-(4-propylphenyl)propyl)-2-(trifluoromethyl) thieno [2,3-d]pyrimidin-4-amine] displayed an IC50 of 1400 nM.

For the molecule `Cc1cc2c(NCCCc3ccc(C4CC4)cc3)nc(C(F)(F)F)nc2s1` [Example 237, N-(3-(4-cyclopropylphenyl)propyl)-6-methyl-2-(trifluoromethyl) thieno[2,3-d] pyrimidin-4-amine], inhibition was half-maximal at 1800 nM (IC50).

Regarding `Cc1cc2c(NCCCc3ccc(C#N)cc3)nc(C(F)(F)F)nc2s1` [Example 238, 4-(3-((6-methyl-2-(trifluoromethyl)thieno[2,3-d]pyrimidin-4-yl)amino)propyl) benzonitrile], the IC50 is above 10000 nM.

Molecule `Cc1cc2c(NCCCc3cccs3)nc(C(F)(F)F)nc2s1` [Example 239, 6-methyl-N-(3-(thiophen-2-yl)propyl)-2-(trifluoromethyl) thieno[2,3-d] pyrimidin-4-amine] gave an IC50 above 6800 nM.

Molecule `Cc1cc2c(NCCCc3cc(F)cc(C(F)(F)F)c3)nc(C(F)(F)F)nc2s1` [Example 240, N-(3-(3-fluoro-5-(trifluoromethyl)phenyl)propyl)-6-methyl-2-(trifluoromethyl) thieno[2,3-d] pyrimidin-4-amine] gave an IC50 of 2900 nM.

`COc1cccc(CCCNc2nc(C(F)(F)F)nc3sc(C)cc23)c1` [Example 241, N-(3-(3-methoxyphenyl)propyl)-6-methyl-2-(trifluoromethyl) thieno[2,3-d] pyrimidin-4-amine] came in with a half-inhibitory concentration (IC50) of 3100 nM.

The molecule `Cc1cc2c(NCCCc3ccc(S(C)(=O)=O)cc3)nc(C(F)(F)F)nc2s1` [Example 242, 6-methyl-N-(3-(4-(methylsulfonyl)phenyl)propyl)-2-(trifluoromethyl) thieno[2,3-d] pyrimidin-4-amine] registered an IC50 above 10000 nM.

`Cc1cc2c(NCCCc3cccc(C#N)c3)nc(C(F)(F)F)nc2s1` [Example 243, 3-(3-((6-methyl-2-(trifluoromethyl)thieno[2,3-d]pyrimidin-4-yl)amino)propyl) benzonitrile] returned an IC50 above 8000 nM.

In turn, `Cc1ccc(CCCNc2nc(C(F)(F)F)nc3sc(C)cc23)cc1` [Example 244, 6-methyl-N-(3-(p-tolyl)propyl)-2-(trifluoromethyl) thieno[2,3-d] pyrimidin-4-amine] registered an IC50 of 1000 nM.

`Cc1cc2c(NCCCc3ccc(Cl)cc3)nc(C(F)(F)F)nc2s1` [Example 245, N-(3-(4-chlorophenyl)propyl)-6-methyl-2-(trifluoromethyl) thieno[2,3-d] pyrimidin-4-amine]: the IC50 turned out to be 1800 nM.

Regarding `COC(=O)c1ccc(CCCNc2nc(C(F)(F)F)nc3sc(C)cc23)cc1` [Example 246, methyl 4-(3-((6-methyl-2-(trifluoromethyl)thieno[2,3-d]pyrimidin-4-yl)amino)propyl) benzoate], the IC50 is above 10000 nM.

Take `Cc1cc2c(NCCCc3ccccc3C)nc(C(F)(F)F)nc2s1` [Example 247, 6-methyl-N-(3-(o-tolyl)propyl)-2-(trifluoromethyl) thieno[2,3-d] pyrimidin-4-amine]: it took 1400 nM to reach half-maximal inhibition (IC50).

In turn, `Cc1cc2c(NCCCc3cccc(Cl)c3)nc(C(F)(F)F)nc2s1` [Example 248, N-(3-(3-chlorophenyl)propyl)-6-methyl-2-(trifluoromethyl) thieno[2,3-d] pyrimidin-4-amine] registered an IC50 of 1800 nM.

The molecule `Cc1cc2c(NCCCc3ccccc3Cl)nc(C(F)(F)F)nc2s1` [Example 249, N-(3-(2-chlorophenyl)propyl)-6-methyl-2-(trifluoromethyl)thieno [2,3-d]pyrimidin-4-amine] returned an IC50 of 4000 nM.

Molecule `CCc1nc(NCCCc2ccc(N(C)C)cc2)c2cc(C)sc2n1` [Example 250, N-(3-(4-(dimethylamino)phenyl)propyl)-2-ethyl-6-methylthieno [2,3-d]pyrimidin-4-amine] registered an IC50 of 200 nM.

`CCc1nc(NCCCc2ccc(C)cc2)c2cc(C)sc2n1` [Example 251, 2-ethyl-6-methyl-N-(3-(p-tolyl)propyl)thieno [2,3-d]pyrimidin-4-amine] came in with an IC50 of 100 nM.

`CCc1nc(NCCCc2ccc(OC(F)(F)F)c(F)c2)c2cc(C)sc2n1` [Example 252, 2-ethyl-N-(3-(3-fluoro-4-(trifluoromethoxy)phenyl)propyl)-6-methylthieno[2,3-d]pyrimidin-4-amine] registered an IC50 of 600 nM.

`CCc1nc(NCCCc2cccc(N(C)C)c2)c2cc(C)sc2n1` [Example 253, N-(3-(3-(dimethylamino)phenyl)propyl)-2-ethyl-6-methylthieno[2,3-d]pyrimidin-4-amine] yielded an IC50 of 1100 nM.

For `CCc1nc(NCCCc2ccc3ncccc3c2)c2cc(C)sc2n1` [Example 254, 2-ethyl-6-methyl-N-(3-(quinolin-6-yl)propyl)thieno[2,3-d]pyrimidin-4-amine], half-maximal inhibition (IC50) was put at 1500 nM.

In the case of `CCc1nc(NCCCc2cccc(OC(F)(F)F)c2)c2cc(C)sc2n1` [Example 255, 2-ethyl-6-methyl-N-(3-(3-(trifluoromethoxy)phenyl)propyl)thieno [2,3-d]pyrimidin-4-amine], the IC50 is 570 nM.

`CCc1nc(NCCCc2ccc3c(c2)CCO3)c2cc(C)sc2n1` [Example 256, N-(3-(2,3-dihydrobenzofuran-5-yl)propyl)-2-ethyl-6-methylthieno[2,3-d]pyrimidin-4-amine] returned an IC50 of 290 nM.

Regarding `CCc1nc(NCCCc2ccc(Cl)cc2)c2cc(C)sc2n1` [Example 257, N-(3-(4-chlorophenyl)propyl)-2-ethyl-6-methylthieno[2,3-d]pyrimidin-4-amine], 140 nM corresponded to half-maximal inhibition (IC50).

As to `CCc1nc(NCCCc2ccc3ccccc3c2)c2cc(C)sc2n1` [Example 258, 2-ethyl-6-methyl-N-(3-(naphthalen-2-yl)propyl)thieno[2,3-d]pyrimidin-4-amine], the IC50 came to 190 nM.

In turn, `CCc1nc(NCCCc2cc(F)cc(C(F)(F)F)c2)c2cc(C)sc2n1` [Example 259, 2-ethyl-N-(3-(3-fluoro-5-(trifluoromethyl)phenyl)propyl)-6-methylthieno[2,3-d]pyrimidin-4-amine] gave an IC50 of 560 nM.

As to `CCc1nc(NCCCc2ccc(OC)c(F)c2)c2cc(C)sc2n1` [Example 260, 2-ethyl-N-(3-(3-fluoro-4-methoxyphenyl)propyl)-6-methylthieno[2,3-d]pyrimidin-4-amine], the IC50 worked out at 200 nM.

The molecule `CCc1nc(NCCCc2cc3ccccc3s2)c2cc(C)sc2n1` [Example 261, N-(3-(benzo[b]thiophen-2-yl)propyl)-2-ethyl-6-methylthieno[2,3-d]pyrimidin-4-amine] came in with an IC50 of 280 nM.

In turn, `Cc1cc2c(NCCCc3ccc(-c4ccc(OC(F)(F)F)cc4)nc3)nc(C(F)(F)F)nc2s1` [Example 262, 6-methyl-N-(3-(6-(4-(trifluoromethoxy)phenyl)pyridin-3-yl)propyl)-2-(trifluoromethyl) thieno[2,3-d]pyrimidin-4-amine;] showed an IC50 of 470 nM.

As for `Cc1cc2c(NCCCc3ccc(-c4ccc(OC(F)(F)F)cc4)cc3)nc(-c3ccon3)nc2s1` [Example 263, 2-(isoxazol-3-yl)-6-methyl-N-(3-(4′-(trifluoromethoxy)-[1,1′-biphenyl]-4-yl)propyl)thieno [2,3-d]pyrimidin-4-amine], the IC50 is 13 nM.

In turn, `Cc1cc(-c2nc(NCCCc3ccc(-c4ccc(OC(F)(F)F)cc4)cc3)c3cc(C)sc3n2)no1` [Example 264, 6-methyl-2-(5-methylisoxazol-3-yl)-N-(3-(4′-(trifluoromethoxy)-[1,1′-biphenyl]-4-yl)propyl)thieno [2,3-d]pyrimidin-4-amine] came in with a 50% inhibitory concentration (IC50) of 40 nM.

Molecule `CCc1nc(NCCCc2ccc(-c3ccccc3)cc2)c2cc(C)sc2n1` [Example 265, N-(3-([1,1′-biphenyl]-4-yl)propyl)-2-ethyl-6-methylthieno[2,3-d]pyrimidin-4-amine] registered an IC50 of 150 nM.

As to `CCc1nc(NCCCc2ccc(-c3ccc(OC(F)(F)F)cc3)cc2)c2cc(C)sc2n1` [Example 266, 2-ethyl-6-methyl-N-(3-(4′-(trifluoromethoxy)-[1,1′-biphenyl]-4-yl)propyl)thieno [2,3-d]pyrimidin-4-amine], it took 49 nM to reach half-maximal inhibition (IC50).

Regarding `Cc1cc2c(NCCCc3ccc(-c4ccc(OC(F)(F)F)cc4)cc3)nc(C(F)(F)F)nc2s1` [Example 267, 6-methyl-N-(3-(4′-(trifluoromethoxy)-[1,1′-biphenyl]-4-yl)propyl)-2-(trifluoromethyl)-thieno[2,3-d]pyrimidin-4-amine], it took 300 nM to reach half-maximal inhibition (IC50).

Consider `Cc1cc2c(NCCCc3ccc(-c4ccccc4)cc3)nc(C(F)(F)F)nc2s1` [Example 268, N-(3-([1,1′-biphenyl]-4-yl)propyl)-6-methyl-2-(trifluoromethyl) thieno[2,3-d]pyrimidin-4-amine], for which half-maximal inhibition (IC50) was put at 1200 nM.

In turn, `CCc1nc(NCCCc2cccc(-c3ccc(OC(F)(F)F)cc3)c2)c2cc(C)sc2n1` [Example 269, 2-ethyl-6-methyl-N-(3-(4′-(trifluoromethoxy)-[1,1′-biphenyl]-3-yl)propyl)thieno [2,3-d]pyrimidin-4-amine] came in with an IC50 of 1100 nM.

In the case of `CCc1nc(NCCCc2cccc(-c3ccccc3)c2)c2cc(C)sc2n1` [Example 270, N-(3-([1,1′-biphenyl]-3-yl)propyl)-2-ethyl-6-methylthieno[2,3-d]pyrimidin-4-amine], the IC50 was found to be 520 nM.

Turning to `CCc1nc(NCCCc2ccc(-c3ccncc3)cc2)c2cc(C)sc2n1` [Example 271, 2-ethyl-6-methyl-N-(3-(4-(pyridin-4-yl)phenyl)propyl) thieno[2,3-d]pyrimidin-4-amine], the IC50 was found to be 350 nM.

`CCc1nc(NCCCc2ccc(-c3ccc(S(C)(=O)=O)cc3)cc2)c2cc(C)sc2n1` [Example 272, 2-ethyl-6-methyl-N-(3-(4′-(methylsulfonyl)-[1,1′-biphenyl]-4-yl)propyl)thieno [2,3-d]pyrimidin-4-amine]: the IC50 amounted to 270 nM.
